Patent publication EP0102509A1, “Oxamid-acid derivatives, process for their preparation and therapeutical agents containing them” (BASF Aktiengesellschaft, priority 1982, dated 1984)

Tested on: passiven cutanen Anaphylaxie (PCA)
Test: Passive cutaneous anaphylaxis (PCA) in rats, oral administration
Format: in vivo, Ratte
Details: for ED50: read-out: Hemmung der PCA ED 50 %; for Hemmung der PCA R.W.: relative potency after oral administration, comparison compound A = 1.00
Experimental: Die antiallergische Wirkung wurde an Ratten getestet. Zur Prüfung wurde das Modell der passiven cutanen Anaphylaxie (PCA) verwendet: • Narkotisierte männliche Ratten (100 - 140 g) werden durch intradermale Injektion (rasierte Rückenhaut) von 0,1 ml eines Ovalbumin-Antiserums sensibilisiert. Nach einer Sensibilisierüngsdauer von ca. 48 h erfolgt die Behandlung (orale Applikation) mit unterschiedlichen Dosierungen (10 Tiere/Dosis) der Prüfsubstanzen. 15 bzw. 20 min nach der Behandlung wird eine Antigen/Evansblau-Mischung (10 mg/kg Ovalbumin in 2%iger Evansblau-Lösung) den Versuchstieren intravenös injiziert. 30 min später werden die Tiere getötet, die Rückenhaut abgezogen und auf der inneren Oberfläche der Durchmesser der kreisförmigen Blaufärbung gemessen. Die Größe der Farbflecke unbehandelter Kontrolltiere ist standardisierbar. Antiallergisch wirksame Substanzen verkleinern dosisabhängig den Durchmesser der Farbflecke. Als ED-50 % wird die Dosis angegeben, die im Vergleich zu medikamentös unbehandelten Kontrolltieren den Durchmesser der Farbflecke um 50 % herabsetzt.

[1] = oral administration, rat, dose that reduces the diameter of the dye spots by 50 % vs untreated controls

Compound | ED50 [1] | Hemmung der PCA R.W. | Hemmung der PCA R.W. (listed as Bsp. 2) | Hemmung der PCA ED 50 % [1] | Hemmung der PCA R.W. (listed as Bsp. 3) | Antiallergische Wirkung (bis 100 mg/kg p.o., rat PCA)
CCOCCOC(=O)C(=O)Nc1cccc(NC(=O)C(=O)OCCOCC)c1 [Beispiel 2, N,N'-(1,3-Phenylen)-dioxamidsäure-2-ethoxyethylester] | 2.77 mg/kg | 3.10 | 3,10 |  |  | 
N,N'-(1,3-Phenylen)-dioxamidsäure-2-butoxyethylester [Beispiel 3] |  | ca. 1.85 |  | ca. 4.64 mg/kg | 1,85 | 
O=C(O)c1cc(=O)c2c(OCC(O)COc3cccc4oc(C(=O)O)cc(=O)c34)cccc2o1 [Cromolyne, reference compound] | > 100 mg/kg |  |  |  |  | unwirksam
